Among the data in patent publication US20240246920A1, “TRIAZOLE DERIVATIVES WITH ANTIFUNGAL ACTIVITY” (King's College London, priority 2020, published 2024) are MIC values, retold here.

One assay concerns Candida auris TDG2211. Put plainly: microbe, parasite or virus in culture. In kind it is cell-based. The conditions noted are these: Candidozyma auris, TDG2211, read-out: MIC C. auris 2211. The procedure: (§1) The minimum inhibitory concentration of test compounds were determined in a panel of Candida species (see Table 4 below), using the a serial dilution method in 96-well plates using the following protocol.
(§2) Starter cultures of fungal strains to be tested were grown in 3 mL of RPMI 2% glucose media incubated at 37° C. with shaking at 200 rpm overnight. The culture media used was 900 mL H2O; 10.4 g RPMI 1640 (with L-glutamine and a pH indicator but without bicarbonate); 34.5 g MOPS and 18 g glucose. The pH of the media was adjusted to 7.0 with 1 M sodium hydroxide.
(§3) Solutions of the compound to be tested were prepared by dissolving the compound in DMSO and subsequently into media to the desired concentrations. […] The last two rows of each plate were control rows containing the culture media alone and the media plus fungi.
(§4) The fungi starter cultures were diluted 1:10 in water in cuvettes. This was then further diluted to an optical density (OD600) of 0.01 in media. 100 μL of the fungi was added to each well giving a starting concentration of fungus of 0.5-5×10^5/mL. One species of fungus was used on each plate. The plates were then held at 37° C. for 24 hours.
(§5) A plate reader was used to measure growth in each well at OD530 nm and the MIC was determined for each test compound. The MIC is defined as the lowest concentration giving rise to inhibition of ≥50% of that of the drug-free control well containing the fungus and media.
(§6) The Candida auris strains shown in Table 7 were either taken from the National Collection of Pathogenic Fungi (NCPF) or collected as part of ongoing surveillance studies. The strains were characterised as follows.

The next assay deals with Candida auris TDG2506. Put plainly: microbe, parasite or virus in culture. The following applies: Candidozyma auris, TDG2506, read-out: MIC C. auris 2506. In kind it is cell-based. The procedure:
as §1, §2, §3, §4, §5, §6

For a further assay, the system named is C. auris 8971. In words: Candida panel MIC, serial dilution in 96-well plates. In kind it is cell-based, Candida auris. The following applies: Candidozyma auris, 8971, read-out: MIC C. auris 8971. The procedure:
as §1, §2, §3, §4, §5, §6

A further assay deals with C. auris 8977. The assay is described as above. In kind it is cell-based, Candida auris. The following applies: Candidozyma auris, 8977, read-out: MIC C. auris 8977. The procedure: as §1, §2, §3, §4, §5, §6
The next assay deals with C. auris 8984. The description is as above. In kind it is cell-based, Candida auris. The following applies: Candidozyma auris, 8984, read-out: MIC C. auris 8984. The procedure:
as §1, §2, §3, §4, §5, §6

≈ marks a conversion by molar mass, not a printed value. Where only a bound is given, the exact number is not on record here.

`OC(CN1CCC(Nc2ccc(OCCN3CCOCC3)cc2)CC1)(Cn1cncn1)c1ccc(F)cc1F` (stereo not shown) [Compound number 6, 2-(2,4-Difluorophenyl)-1-(4-((4-(2-morpholinoethoxy)phenyl)amino)piperidin-1-yl)-3-(1H-1,2,4-triazol-1-yl)propan-2-ol]: the MIC came out at 0.25 µg/mL (≈ 0.461 µM) in the assay with Candida auris TDG2211; 0.25 µg/mL (≈ 0.461 µM) in the assay with Candida auris TDG2506; 0.03 µg/mL (≈ 0.0553 µM) in the assay with C. auris 8971; 0.06 µg/mL (≈ 0.111 µM) in the assay on C. auris 8977; 0.125 µg/mL (≈ 0.23 µM) in the assay with C. auris 8984.

In the case of `OC(CN1CCC(Nc2ccc(Cc3ccccc3)cc2)CC1)(Cn1cncn1)c1ccc(F)cc1F` (stereo not shown) [Compound number 11, 1-(4-((4-benzylphenyl)amino)piperidin-1-yl)-2-(2,4-difluorophenyl)-3-(1H-1,2,4-triazol-1-yl)propan-2-ol], the MIC is no more than 0.125 µg/mL in the assay on Candida auris TDG2211; 0.125 µg/mL (≈ 0.248 µM) with Candida auris TDG2506; no more than 0.125 µg/mL in the assay with C. auris 8971; no more than 0.125 µg/mL in the assay on C. auris 8977; 0.125 µg/mL (≈ 0.248 µM) in the assay on C. auris 8984.

As for `OC(CN1CCC(N2CCC(Nc3ccc(Cc4ccccc4)cc3)CC2)CC1)(Cn1cncn1)c1ccc(F)cc1F` (stereo not shown) [Compound number 12, 1-(4-((4-benzylphenyl)amino)-[1,4′-bipiperidin]-1′-yl)-2-(2,4-difluorophenyl)-3-(1H-1,2,4-triazol-1-yl)propan-2-ol], the MIC with Candida auris TDG2211, in the assay with Candida auris TDG2506, in the assay on C. auris 8971, in the assay on C. auris 8977 and in the assay with C. auris 8984 was no more than 0.125 µg/mL each time.

Turning to `OC(CN1CCC2(CCC(Nc3ccc(Cc4ccccc4)cc3)CC2)C1)(Cn1cncn1)c1ccc(F)cc1F` (stereo not shown) [Compound number 13, 1-(8-((4-benzylphenyl)amino)-2-azaspiro[4.5]decan-2-yl)-2-(2,4-difluorophenyl)-3-(1H-1,2,4-triazol-1-yl)propan-2-ol], the MIC with Candida auris TDG2211 is no more than 0.125 µg/mL; in the assay with Candida auris TDG2506, no more than 0.125 µg/mL; in the assay with C. auris 8971 it was no more than 0.125 µg/mL; in the assay on C. auris 8977, no more than 0.125 µg/mL; in the assay on C. auris 8984, no more than 0.003 µg/mL.

`OC(CN1CCC2(CCC(Nc3ccc(OCCN4CCOCC4)cc3)CC2)C1)(Cn1cncn1)c1ccc(F)cc1F` (stereo not shown) [Compound number 87, 2-(2,4-difluorophenyl)-1-(8-((4-(2-morpholinoethoxy)phenyl)amino)-2-azaspiro[4.5]decan-2-yl)-3-(1H-1,2,4-triazol-1-yl)propan-2-ol]: the MIC in the assay with Candida auris TDG2211 was found to be 0.125 µg/mL (≈ 0.209 µM); in the assay on Candida auris TDG2506, 0.125 µg/mL (≈ 0.209 µM); with C. auris 8971, 0.25 µg/mL (≈ 0.419 µM); in the assay with C. auris 8977, 0.25 µg/mL (≈ 0.419 µM); in the assay on C. auris 8984, 0.25 µg/mL (≈ 0.419 µM).
